Experimental data: the supplement of paper PMC10307832

compound: Cc1ccc(C(=O)Nc2ccc(CN3CCN(C)CC3)c(C(F)(F)F)c2)cc1C#Cc1cnc2cccnn12 [Ponatinib] + C[C@]1(O)C[C@@H](c2nc(-c3ccc4ccc(-c5ccccc5)nc4c3)c3c(N)nccn32)C1 [Linsitinib] (partner 1 µM); experiment: relative viability (nuclei count vs DMSO), 5 days (fraction); higher = more cells survive; settings: first compound 0.002 µM
Outline: (§1)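 Lung cancer cell lines in 1536-well plates were dosed by pin tool the day after seeding, either with one drug alone or with a fixed anchor-drug dose plus five library-drug doses (not always all listed) in √10 steps. After 5 days, cells were fixed and their nuclei stained in one step (final 0.05% Triton X-100, 1% formaldehyde, 1 ug/ml Hoechst), then counted on 4× images. Relative viability is the nuclei count in treated wells divided by that in vehicle wells. Values are medians of duplicate plates.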

Row | Cell Line | relative viability
1 | 201T | 0.958
2 | NCI-H1915 | 1.02
3 | HCC-827 | 1.03
4 | LXF-289 | 0.936
5 | NCI-H23 | 0.501
6 | NCI-H650 | 0.641
7 | CAL-12T | 0.791
8 | NCI-H1651 | 0.906
9 | EPLC-272H | 1.06
10 | NCI-H2228 | 0.652
11 | NCI-H1792 | 0.525
12 | NCI-H1355 | 0.833
13 | NCI-H322M | 0.854
14 | NCI-H1437 | 0.999
15 | NCI-H1755 | 0.984
16 | NCI-H2023 | 0.666
17 | HCC-15 | 0.923
18 | NCI-H1944 | 1.14
19 | PC-3 [JPC-3] | 0.981
20 | EKVX | 0.927
21 | LC-2-ad | 0.802
22 | NCI-H1563 | 1.22
23 | NCI-H1975 | 0.876
24 | SK-LU-1 | 0.943
25 | ABC-1 | 1.07
26 | SK-MES-1 | 0.99
27 | NCI-H661 | 0.54
28 | RERF-LC-KJ | 0.842

same assay, conditions: first compound 0.006325 µM

Row | Cell Line | relative viability
29 | A-427 | 1.09
30 | NCI-H460 | 0.795
31 | NCI-H727 | 0.328
32 | NCI-H1734 | 0.864
33 | NCI-H520 | 1
34 | NCI-H2405 | 0.958
35 | SW 1573 | 0.775
36 | 201T | 1.11
37 | NCI-H1915 | 1.08
38 | HCC-827 | 0.968
39 | LXF-289 | 0.959
40 | NCI-H23 | 0.602
41 | NCI-H650 | 0.83
42 | CAL-12T | 0.773
43 | NCI-H1651 | 0.978
44 | EPLC-272H | 1.24
45 | NCI-H2228 | 0.711
46 | NCI-H1792 | 0.591

Row | Cell Line | relative viability
47 | NCI-H1355 | 0.916
48 | NCI-H322M | 0.897
49 | NCI-H1437 | 1.05
50 | NCI-H1755 | 0.949
51 | NCI-H2023 | 0.711
52 | HCC-15 | 0.873
53 | NCI-H1944 | 1.29
54 | PC-3 [JPC-3] | 0.984
55 | EKVX | 1.04
56 | LC-2-ad | 0.728
57 | NCI-H1563 | 1.26
58 | NCI-H1975 | 0.867
59 | SK-LU-1 | 1.19
60 | ABC-1 | 0.881
61 | SK-MES-1 | 1.12
62 | NCI-H661 | 0.598
63 | RERF-LC-KJ | 0.907

same assay, conditions: first compound 0.06325 µM

Row | Cell Line | relative viability
64 | A-427 | 1.21
65 | NCI-H460 | 1.1
66 | NCI-H727 | 0.378
67 | NCI-H1734 | 1
68 | NCI-H520 | 0.867
69 | NCI-H2405 | 0.903
70 | SW 1573 | 0.777
71 | 201T | 1.06
72 | NCI-H1915 | 1.09
73 | HCC-827 | 1.03
74 | LXF-289 | 0.992
75 | NCI-H23 | 0.705
76 | NCI-H650 | 0.809
77 | CAL-12T | 1.12
78 | NCI-H1651 | 1.09
79 | EPLC-272H | 1.31
80 | NCI-H2228 | 0.874
81 | NCI-H1792 | 0.572

Row | Cell Line | relative viability
82 | NCI-H1355 | 1.08
83 | NCI-H322M | 1.03
84 | NCI-H1437 | 1.05
85 | NCI-H1755 | 1.05
86 | NCI-H2023 | 0.781
87 | HCC-15 | 0.953
88 | NCI-H1944 | 1.41
89 | PC-3 [JPC-3] | 0.992
90 | EKVX | 1.24
91 | LC-2-ad | 0.644
92 | NCI-H1563 | 1.21
93 | NCI-H1975 | 0.99
94 | SK-LU-1 | 1.18
95 | ABC-1 | 0.794
96 | SK-MES-1 | 1.12
97 | NCI-H661 | 0.692
98 | RERF-LC-KJ | 0.914

same assay, conditions: first compound 0.2 µM

Row | Cell Line | relative viability
99 | A-427 | 0.981
100 | NCI-H460 | 0.744
101 | NCI-H727 | 0.173
102 | NCI-H1734 | 0.754
103 | NCI-H520 | 0.628
104 | NCI-H2405 | 0.712
105 | SW 1573 | 0.819
106 | 201T | 1.01
107 | NCI-H1915 | 0.995
108 | HCC-827 | 0.966
109 | LXF-289 | 0.933
110 | NCI-H23 | 0.608
111 | NCI-H650 | 0.743
112 | CAL-12T | 0.899
113 | NCI-H1651 | 0.932
114 | EPLC-272H | 0.801
115 | NCI-H2228 | 0.73
116 | NCI-H1792 | 0.521

Row | Cell Line | relative viability
117 | NCI-H1355 | 0.947
118 | NCI-H322M | 0.819
119 | NCI-H1437 | 0.915
120 | NCI-H1755 | 0.986
121 | NCI-H2023 | 0.601
122 | HCC-15 | 0.815
123 | NCI-H1944 | 1.22
124 | PC-3 [JPC-3] | 0.956
125 | EKVX | 1.02
126 | LC-2-ad | 0.555
127 | NCI-H1563 | 1.1
128 | NCI-H1975 | 1.01
129 | SK-LU-1 | 0.997
130 | ABC-1 | 0.973
131 | SK-MES-1 | 1.07
132 | NCI-H661 | 0.565
133 | RERF-LC-KJ | 0.827

compound: Cc1ccc(Nc2nccc(N(C)c3ccc4c(C)n(C)nc4c3)n2)cc1S(N)(=O)=O [Pazopanib] + COc1cccc2cc(-c3nc([C@H]4CC[C@H](C(=O)O)CC4)n4ncnc(N)c34)[nH]c12 [OSI-027] (partner 0.5 µM); experiment: as above; settings: first compound 0.01 µM
Outline: as §1

Row | Cell Line | relative viability
134 | A-427 | 0.512
135 | NCI-H460 | 0.601
136 | NCI-H727 | 0.462
137 | NCI-H1734 | 0.56
138 | NCI-H520 | 0.271
139 | NCI-H2405 | 0.628
140 | SW 1573 | 0.566
141 | 201T | 0.83
142 | NCI-H1915 | 0.61
143 | HCC-827 | 0.775
144 | LXF-289 | 0.815
145 | NCI-H23 | 0.559
146 | NCI-H650 | 0.464
147 | CAL-12T | 0.473
148 | NCI-H1651 | 0.66
